Experimental data taken from patent publication US6914045B2, “Glycopeptide antibiotics” (Wyeth Holdings Corporation, priority 2001, dated 2005).
Values after ≈ are worked out from the molar mass of the structure shown.

How the values were obtained:
Assay in all cases: in vitro antibacterial evaluation, MIC by broth dilution
Assay type in all cases: cell-based
Escherichia coli = settings: 18 hours at 35° C.
Enterococcus sp. = settings: broth dilution, 18 hours at 35° C.
Procedure, shortened: (§1)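 Inoculum 5×10^5 CFU/mL; concentrations 64 to 0.06 μg/mL; MIC defined as lowest inhibitory level. Conducted by broth dilution under NCCLS guidelines.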

Staphylococcus sp. = settings: broth dilution, 18 hours at 35° C.; for MIC Staphylococcus aureus (GC 1131): strain GC 1131
Procedure, shortened: as §1

Streptococcus sp. = settings: broth dilution, 18 hours at 35° C.
Procedure, shortened: as §1

MIC Escherichia coli (ATCC 25922) (Escherichia coli): >0.5 µg/mL
MIC Escherichia coli (GC 4559) (Escherichia coli): >0.5 µg/mL
MIC Escherichia coli (GC 4560) (Escherichia coli): 0.5 µg/mL (≈ 0.353 µM)
MIC Enterococcus avium (GC 4558) (Enterococcus sp.): 0.5 µg/mL (≈ 0.353 µM)
MIC Enterococcus faecalis (ATCC 29212) (Enterococcus sp.): 0.5 µg/mL (≈ 0.353 µM)
MIC Enterococcus faecalis (GC 2242) (Enterococcus sp.): 0.5 µg/mL (≈ 0.353 µM)
MIC Enterococcus faecalis (GC 2691) (Enterococcus sp.): 0.5 µg/mL (≈ 0.353 µM)
MIC Enterococcus faecalis (GC 3059) (Enterococcus sp.): 0.5 µg/mL (≈ 0.353 µM)
MIC Enterococcus faecalis (GC 4552) (Enterococcus sp.): 0.5 µg/mL (≈ 0.353 µM)
MIC Enterococcus faecalis (GC 4553) (Enterococcus sp.): 0.5 µg/mL (≈ 0.353 µM)
MIC Enterococcus faecalis (GC 4554) (Enterococcus sp.): 0.5 µg/mL (≈ 0.353 µM)
MIC Enterococcus faecalis (GC 6189) (Enterococcus sp.): 0.5 µg/mL (≈ 0.353 µM)
MIC Enterococcus faecium (GC 2243) (Enterococcus sp.): 0.5 µg/mL (≈ 0.353 µM)
MIC Enterococcus faecium (GC 4556) (Enterococcus sp.): 0.5 µg/mL (≈ 0.353 µM)
MIC Enterococcus faecium (GC 4557) (Enterococcus sp.): 0.5 µg/mL (≈ 0.353 µM)
MIC Enterococcus faecalis (ATCC 29212) (Enterococcus sp.; inoculum 5×10^5 CFU/mL, strain ATCC 29212): 0.5 µg/mL (≈ 0.353 µM)
MIC Enterococcus faecalis (GC 2242) (Enterococcus sp.; inoculum 5×10^5 CFU/mL, strain GC 2242): 0.5 µg/mL (≈ 0.353 µM)
MIC Enterococcus faecium (GC 2243) (Enterococcus sp.; inoculum 5×10^5 CFU/mL, strain GC 2243): 0.5 µg/mL (≈ 0.353 µM)
MIC Enterococcus faecalis (GC 2691) (Enterococcus sp.; inoculum 5×10^5 CFU/mL, strain GC 2691): 0.5 µg/mL (≈ 0.353 µM)
MIC Enterococcus faecalis (GC 3059) (Enterococcus sp.; inoculum 5×10^5 CFU/mL, strain GC 3059): 0.5 µg/mL (≈ 0.353 µM)
MIC Enterococcus faecalis (GC 4552) (Enterococcus sp.; inoculum 5×10^5 CFU/mL, strain GC 4552): 0.5 µg/mL (≈ 0.353 µM)
MIC Enterococcus faecalis (GC 4553) (Enterococcus sp.; inoculum 5×10^5 CFU/mL, strain GC 4553): 0.5 µg/mL (≈ 0.353 µM)
MIC Enterococcus faecalis (GC 4554) (Enterococcus sp.; inoculum 5×10^5 CFU/mL, strain GC 4554): 0.5 µg/mL (≈ 0.353 µM)
MIC Enterococcus faecium (GC 4556) (Enterococcus sp.; inoculum 5×10^5 CFU/mL, strain GC 4556): 0.5 µg/mL (≈ 0.353 µM)
MIC Enterococcus faecium (GC 4557) (Enterococcus sp.; inoculum 5×10^5 CFU/mL, strain GC 4557): 0.5 µg/mL (≈ 0.353 µM)
MIC Enterococcus avium (GC 4558) (Enterococcus sp.; inoculum 5×10^5 CFU/mL, strain GC 4558): 0.5 µg/mL (≈ 0.353 µM)
MIC Enterococcus faecalis (GC 6189) (Enterococcus sp.; inoculum 5×10^5 CFU/mL, strain GC 6189): 0.5 µg/mL (≈ 0.353 µM)
MIC Staphylococcus aureus (GC 1131) (Staphylococcus sp.; inoculum 5×10^5 CFU/mL): 0.5 µg/mL (≈ 0.353 µM)
MIC Staphylococcus aureus (ATCC 29213) (Staphylococcus sp.; strain ATCC 29213): 0.5 µg/mL (≈ 0.353 µM)
MIC Staphylococcus aureus (GC 1131) (Staphylococcus sp.): 0.5 µg/mL (≈ 0.353 µM)
MIC Staphylococcus aureus (GC 3051) (Staphylococcus sp.; strain GC 3051): 0.5 µg/mL (≈ 0.353 µM)
MIC Staphylococcus aureus (GC 3053) (Staphylococcus sp.; strain GC 3053): 0.5 µg/mL (≈ 0.353 µM)
MIC Staphylococcus aureus (GC 4541) (Staphylococcus sp.; strain GC 4541): 0.5 µg/mL (≈ 0.353 µM)
MIC Staphylococcus aureus (GC 4542) (Staphylococcus sp.; strain GC 4542): 0.5 µg/mL (≈ 0.353 µM)
MIC Staphylococcus aureus-SMITH (GC 4543) (Staphylococcus sp.; strain GC 4543): 0.5 µg/mL (≈ 0.353 µM)
MIC Staphylococcus aureus (GC 4544) (Staphylococcus sp.; strain GC 4544): 0.5 µg/mL (≈ 0.353 µM)
MIC Staphylococcus aureus (GC 4545) (Staphylococcus sp.; strain GC 4545): 0.5 µg/mL (≈ 0.353 µM)
MIC Coagulase Negative Staphylococcus (GC 4547) (Staphylococcus sp.; strain GC 4547): 4 µg/mL (≈ 2.82 µM)
MIC Coagulase Negative Staphylococcus (GC 4548) (Staphylococcus sp.; strain GC 4548): 2 µg/mL (≈ 1.41 µM)
MIC Coagulase Negative Staphylococcus (GC 4549) (Staphylococcus sp.; strain GC 4549): 1 µg/mL (≈ 0.705 µM)
MIC Coagulase Negative Staphylococcus (GC 4551) (Staphylococcus sp.; strain GC 4551): 4 µg/mL (≈ 2.82 µM)
MIC Coagulase Negative Staphylococcus (GC 6257) (Staphylococcus sp.; strain GC 6257): 2 µg/mL (≈ 1.41 µM)
MIC Streptococcus agalactiae (GC 4564) (Streptococcus sp.): 0.5 µg/mL (≈ 0.353 µM)
MIC Streptococcus pneumoniae (ATCC 6301) (Streptococcus sp.): 0.12 µg/mL (≈ 0.0846 µM)
MIC Streptococcus pneumoniae (GC 1894) (Streptococcus sp.): 0.12 µg/mL (≈ 0.0846 µM)
MIC Streptococcus pneumoniae (GC 4565) (Streptococcus sp.): 0.12 µg/mL (≈ 0.0846 µM)
MIC Streptococcus pyogenes (GC 4563) (Streptococcus sp.): 0.12 µg/mL (≈ 0.0846 µM)
MIC Streptococcus pneumoniae (ATCC 6301) (Streptococcus sp.; inoculum 5×10^5 CFU/mL, strain ATCC 6301): 0.12 µg/mL (≈ 0.0846 µM)
MIC Streptococcus pneumoniae (GC 1894) (Streptococcus sp.; inoculum 5×10^5 CFU/mL, strain GC 1894): 0.12 µg/mL (≈ 0.0846 µM)
MIC Streptococcus pyogenes (GC 4563) (Streptococcus sp.; inoculum 5×10^5 CFU/mL, strain GC 4563): 0.12 µg/mL (≈ 0.0846 µM)
MIC Streptococcus agalactiae (GC 4564) (Streptococcus sp.; inoculum 5×10^5 CFU/mL, strain GC 4564): 0.5 µg/mL (≈ 0.353 µM)
MIC Streptococcus pneumoniae (GC 4565) (Streptococcus sp.; inoculum 5×10^5 CFU/mL, strain GC 4565): 0.12 µg/mL (≈ 0.0846 µM)
Compound: CC(c1ccc(Cl)cc1)C1NC(=O)CNC(=O)C(CO)NC(=O)C(C(O)C2CNC(=N)N2C2OC(CO)C(O)C(O)C2O)NC(=O)C(C(O)C2CNC(=N)N2)NC(=O)C(Cc2ccc(OC3OC(CO)C(OC4OC5COC(c6ccccc6)OC5C(O)C4O)C(O)C3O)cc2)NC1=O (centres unmarked) [Example 195]
MIC Staphylococcus haemolyticus (GC 4546) (Staphylococcus sp.; strain GC 4546): 2 µg/mL (≈ 1.41 µM)
